Type in all cases: cell-based
In experiment [1] the test system is HCT116 MTAP-deleted cell lines. Put plainly: Cell viability assay for HCT116 isogenic pair (CellTitre-Glo, 7 days). To be noted: Homo sapiens, HCT-116, 168 h, 7 days of treatment, cell line not given. Summed up: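 HCT116 WT or MTAP-deleted cells, 100 per well, seeded onto pre-spotted PRMT5 inhibitor dose series in RPMI 1640/10% heat-inactivated FBS and grown 7 days at 37° C, 5% CO2. CellTiter-Glo luminescence then read; CC50 (nM) from 4-parameter logistic fit.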

Experiment [2] relates to BxPC-3. Briefly: Cell viability assay for additional cell lines: BxPC-3. To be noted: for GI50: Homo sapiens, 216 h, 9-day treatment, average of n=2, read-out: MTAP-Deleted GI50. As to the method:
(§1) Some Compounds of the Disclosure were tested in Calu-6 (Vendor: ATCC; Cat #HTB-56; Description: lung, adenocarcinoma), LU99 (Vendor: JCRB; Cat #JCRB0080; Description: non-small cell lung cancer), SW780 (Vendor: ATCC; Cat #CRL-2169; Description: bladder urothelial carcinoma), BxPC-3 (Vendor: ATCC; Cat #CRL-1687; Description: pancreatic adenocarcinoma), Panc-1 (Vendor: ATCC; Cat #CRL-1469 Description: pancreatic adenocarcinoma), AsPC-1 (Vendor: ATCC; Cat #CRL-1682; Description: pancreatic adenocarcinoma), Calu-6 (Vendor: ATCC; Cat #HTB-56; Description: non-small cell lung cancer), and U-2 OS (Vendor: ATCC; Cat #HTB-96; Description: osteosarcoma), cellular viability assays according to the general protocol. Seeded cells into 96-well plate and incubated overnight. Seeded an additional 10 wells per cell line in an additional 96-well plate for assessing Time Zero luminescence and incubated overnight. To treatment plates, added compounds into each well using Tecan D300e dispenser (nine three-fold dilutions starting at 10 μM) and incubated for 9 days. Time Zero (no compound treatment, luminescence assessed on day 1) and 9-day treatment (luminescence assessed on day 10) plates were assessed using the same CellTiter-Glo® substrate protocol. Thawed CellTiter-Glo® Buffer and lyophilized CellTiter-Glo® substrate and equilibrated to room temperature prior to use. The DMSO concentration was normalized to 0.137%. Transferred 100 ml CellTiter-Glo® Buffer into amber bottle containing CellTiter-Glo® substrate to reconstitute the lyophilized enzyme/substrate mixture. For Time Zero and 9-day treatment plates, removed all plating media. Added 100 μl fresh media/well. Added 100 μl CellTiter-Glo® Reagent per well. Mixed contents for 10 min on an orbital shaker to lyse cells. Recorded luminescence with Perkin Elmer Envision 2105 machine. Analyzed the data with GraphPad software. Potency fold difference is defined as GI50 (AMG193)/GI50 (Ca-47) for the MTAP^del cell line of interest. The structure of AMG193 is as follows.

Experiment [3] concerns Panc-1. Briefly: Cell viability assay for additional cell lines: Panc-1. As to conditions: for GI50: Homo sapiens, 216 h, 9-day treatment, average of n=2, read-out: MTAP-Deleted GI50. The protocol:
as §1

In general, CC50 refers to the concentration that lowers cell viability or growth by half. One may read the GI50 as the concentration that inhibits growth by half.

Consider `Nc1nc2cnc(C(=O)N3CCOC[C@@H]3c3ccc(C(F)(F)F)cc3)cc2c2c1COC2` [AMG193, reference compound], for which, in experiment [1], the CC50 turned out to be 69 nM. Besides, the GI50 in experiment [2] is 68 nM; in experiment [3] it was 517 nM.

The compound `Nc1nc2cnc(C(=O)N3CCC[C@@H]4Oc5cc(C(F)(F)F)cc(F)c5[C@@H]43)cc2c2c1COC2` [Example Ca-47, (4-amino-1,3-dihydrofuro[3,4-c][1,7]naphthyridin-8-yl)((4aS,9bS)-9-fluoro-7-(trifluoromethyl)-3,4,4a,9b-tetrahydrobenzofuro[3,2-b]pyridin-1(2H)-yl)methanone] displayed a CC50 in experiment [1] of 14 nM. For the same compound, the results for the Potency fold difference in experiment [2] (GI50 (AMG193)/GI50 (Ca-47)) and in experiment [3] (GI50 (AMG193)/GI50 (Ca-47)) were 4.3 and 5.9, respectively. Besides, the GI50 in experiment [2] came to 16 nM; in experiment [3], 87 nM.
